The text below walks through data of ChEMBL document CHEMBL1201862, “PubChem BioAssay data set” (2004).

Molecules are shown by their SMILES.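 96-well plates; 48 h exposure; 5 concentrations. Endpoints by linear interpolation between flanking doses. Not reached: highest tested concentration assigned. GI50 is the concentration that inhibits growth by half.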 Calls of active or inactive are those of the source. Rule as the data show it: active = GI50 up to about 1.1 µM and inactive = higher.

Test systems include NCI-H522; IGROV-1; SF-295; KM12; HCC 2998; LOX IMVI; OVCAR-8; CAKI-1; SN12C; COLO 205; SW-620; NCI-H23; HCT-15; SK-MEL-5; SK-MEL-28; DMS-273; OVCAR-5; A498; HT-29; DU-145.
Holding throughout (experiment): inhibition of tumour cell growth, NCI panel, 48 h

Regarding `O=C(NC(Cc1ccc(I)cc1)C(=O)O)c1ccc(Br)cc1` (centres undefined), the GI50 in the assay on NCI-H522 was 64.9 µM (inactive); in the assay with IGROV-1 it was > 100 µM (inactive); in the assay with SF-295 it was > 100 µM (inactive); in the assay with KM12, > 100 µM (inactive); with HCC 2998, 25.9 µM (inactive); with LOX IMVI it was > 100 µM (inactive). The GI50 with OVCAR-8, with CAKI-1, with SN12C, with COLO 205, with SW-620 and with NCI-H23 was > 100 µM (inactive) each time. Further, the GI50 in the assay with HCT-15 was over 100 µM; with SK-MEL-5 it was > 67.1 µM (inactive); with SK-MEL-28 it was > 100 µM (inactive); with DMS-273, > 100 µM (inactive); with OVCAR-5 it was > 100 µM (inactive); in the assay with A498, > 100 µM (inactive). Further, the GI50 with HT-29 is > 100 µM (inactive).

In the case of `O=C(c1ccccc1)C1C(c2ccccc2)N1S(=O)(=O)c1ccccc1` (centres undefined), the GI50 with NCI-H522, in the assay on IGROV-1, in the assay on SF-295, in the assay on KM12, in the assay on HCC 2998 and with LOX IMVI was > 100 µM (inactive) throughout. Also, the GI50 in the assay on OVCAR-8, in the assay with CAKI-1, in the assay on SN12C, with DU-145, in the assay on COLO 205 and in the assay with SW-620 was > 100 µM (inactive) each time. Besides, the GI50 in the assay on NCI-H23 was > 100 µM (inactive); in the assay with HCT-15 it was over 100 µM; in the assay on SK-MEL-5, > 100 µM (inactive); in the assay with SK-MEL-28 it was > 100 µM (inactive); with OVCAR-5, > 100 µM (inactive); with HT-29, > 100 µM (inactive).

Regarding `O=c1c(-c2ccccc2)c(SCCN2CCCCCC2)n(-c2ccccc2)c(=S)n1-c1ccccc1`, the GI50 with NCI-H522 was 20.3 µM (inactive); with IGROV-1, 45.8 µM (inactive); with SF-295, 83.9 µM (inactive); with KM12, 27.3 µM (inactive); in the assay with HCC 2998, 3.52 µM (inactive); in the assay on LOX IMVI it was 50.7 µM (inactive). Besides, the GI50 in the assay with OVCAR-8 is 80 µM (inactive); with CAKI-1, 22.9 µM (inactive); with DU-145 it was 23.6 µM (inactive); in the assay with COLO 205, 30.4 µM (inactive); with SW-620, 37.2 µM (inactive); in the assay on NCI-H23, 68.9 µM (inactive). For the same molecule, the GI50 was 51.3 µM in the assay on HCT-15; 23.2 µM (inactive) with SK-MEL-5; > 100 µM (inactive) in the assay on SK-MEL-28; 21.1 µM (inactive) in the assay on OVCAR-5; 19.7 µM (inactive) in the assay with A498.

As to `CCOC(=O)C(C(=O)OCC)c1cc(-c2cc3ccccc3o2)oc(=O)c1C#N`, the GI50 in the assay with IGROV-1 was 24.9 µM (inactive); with SF-295 it was 22.2 µM (inactive); in the assay with KM12 it was 35.6 µM (inactive); in the assay with HCC 2998, 19.5 µM (inactive); in the assay with LOX IMVI, 17.9 µM (inactive); in the assay on OVCAR-8, 21.4 µM (inactive). The GI50 in the assay with CAKI-1 is 17.4 µM (inactive); with SN12C, 24.4 µM (inactive); in the assay on COLO 205, 20.5 µM (inactive); with SW-620, 23.1 µM (inactive); in the assay on NCI-H23 it was 16 µM (inactive); with HCT-15, 19.1 µM. The GI50 in the assay with SK-MEL-5 was 32.5 µM (inactive); in the assay with SK-MEL-28, 25.1 µM (inactive); with DMS-273, 25.9 µM (inactive); with OVCAR-5, 18.5 µM (inactive); in the assay on A498, 25.3 µM (inactive); in the assay on HT-29, 18.6 µM (inactive).

`Nc1nnc2ccc(Cl)cc2[n+]1[O-]`: the GI50 is 38 µM (inactive) in the assay on NCI-H522; 31.8 µM (inactive) in the assay with IGROV-1; > 100 µM (inactive) in the assay on SF-295; > 100 µM (inactive) in the assay on KM12; 40.8 µM (inactive) in the assay with HCC 2998; 57.5 µM (inactive) in the assay on LOX IMVI. The GI50 with OVCAR-8 is 24.9 µM (inactive); in the assay on CAKI-1, > 100 µM (inactive); with SN12C, > 100 µM (inactive); with DU-145 it was > 100 µM (inactive); with COLO 205, 24.4 µM (inactive); with SW-620, 36.5 µM (inactive). The GI50 is 30.1 µM (inactive) with NCI-H23; 36.2 µM in the assay with HCT-15; 31 µM (inactive) in the assay on SK-MEL-5; 62.5 µM (inactive) in the assay on SK-MEL-28; > 100 µM (inactive) in the assay with OVCAR-5; 68.5 µM (inactive) in the assay on A498. The GI50 in the assay with HT-29 was 42.4 µM (inactive).

As to `Cc1ccc(NC(=O)S(N)(c2ccc(C)cc2)[N+](=O)[O-])cc1` (centres undefined), the GI50 in the assay on IGROV-1, with SF-295, with KM12, in the assay on HCC 2998, in the assay with LOX IMVI and with OVCAR-8 was > 100 µM (inactive) each time. Further, the GI50 in the assay on CAKI-1 is > 100 µM (inactive); in the assay with SN12C, > 100 µM (inactive); with DU-145 it was 89.7 µM (inactive); in the assay with COLO 205, > 100 µM (inactive); with SW-620 it was > 100 µM (inactive); with NCI-H23, > 100 µM (inactive). Further, the GI50 was over 100 µM with HCT-15; > 100 µM (inactive) in the assay on SK-MEL-5; > 100 µM (inactive) in the assay on SK-MEL-28; > 100 µM (inactive) in the assay with OVCAR-5; > 100 µM (inactive) in the assay with A498; > 100 µM (inactive) with HT-29.

As for `Cc1cccc(C(O)c2cccnc2)c1O` (centres undefined), the GI50 in the assay with NCI-H522 is > 100 µM (inactive); with IGROV-1, > 100 µM (inactive); in the assay with SF-295 it was > 100 µM (inactive); with KM12, > 100 µM (inactive); with HCC 2998, 44.2 µM (inactive); in the assay on LOX IMVI it was > 100 µM (inactive). In addition, the GI50 with OVCAR-8, in the assay on CAKI-1, in the assay with SN12C, in the assay with DU-145, in the assay with COLO 205 and with SW-620 was > 100 µM (inactive) each time. The GI50 was > 100 µM (inactive) in the assay on NCI-H23; over 100 µM with HCT-15; 76.4 µM (inactive) in the assay on SK-MEL-5; > 100 µM (inactive) in the assay with SK-MEL-28; 39.2 µM (inactive) in the assay with OVCAR-5; > 100 µM (inactive) in the assay on HT-29.

As to `CC(C)=CCC(OC(=O)C=C(C)C)c1cc(O)c2c(c1O)C(=O)C=CC2=O` (centres undefined), the GI50 was 2.04 µM (inactive) in the assay on IGROV-1; 2.95 µM (inactive) with SF-295; 2.42 µM (inactive) in the assay on KM12; 2.4 µM (inactive) in the assay with HCC 2998; 0.261 µM (active) in the assay with LOX IMVI; 0.33 µM (active) in the assay on OVCAR-8. Also, the GI50 in the assay with CAKI-1 was 0.64 µM (active); in the assay with SN12C, 1.04 µM (active); in the assay on COLO 205, 0.382 µM (active); in the assay with SW-620 it was 0.267 µM (active); with HCT-15, 0.398 µM; in the assay with SK-MEL-5, 0.883 µM (active). Also, the GI50 in the assay on SK-MEL-28 was 0.853 µM (active); in the assay with DMS-273, 1.98 µM (inactive); in the assay with OVCAR-5, 3.89 µM (inactive); with A498, 2.62 µM (inactive); in the assay on HT-29 it was 1.67 µM (inactive).

Consider `Brc1ccccc1-c1ncc(-c2ccccc2)o1`, for which the GI50 is 22.6 µM (inactive) in the assay on NCI-H522; 19.2 µM (inactive) in the assay on IGROV-1; 33.9 µM (inactive) with SF-295; 17.4 µM (inactive) with KM12; 30 µM (inactive) with HCC 2998; 17.1 µM (inactive) in the assay on LOX IMVI. Also, the GI50 in the assay on OVCAR-8 is 37.1 µM (inactive); in the assay with CAKI-1 it was 32.1 µM (inactive); in the assay on SN12C, 55.2 µM (inactive); with DU-145 it was 32.1 µM (inactive); in the assay with COLO 205, 20.1 µM (inactive); in the assay with SW-620 it was 35.6 µM (inactive). The GI50 in the assay with NCI-H23 is 29.4 µM (inactive); in the assay on HCT-15, 7.36 µM; in the assay on SK-MEL-5, 18.1 µM (inactive); with SK-MEL-28, 40.6 µM (inactive); with OVCAR-5 it was 66.5 µM (inactive); in the assay on A498, 23 µM (inactive). For the same molecule, the GI50 in the assay on HT-29 is 29.9 µM (inactive).

On to `CC1=CC[C@H](C)C(C)(C)C1/C=C/C(C)=C/CC[C@@]1(CO)[C@H](CCCO)/C(=C(/C)C=O)CC[C@]1(C)O` (some centres undefined), for which the GI50 in the assay on NCI-H522 was 4.06 µM (inactive); in the assay with IGROV-1 it was 11.7 µM (inactive); with SF-295, 1.23 µM (inactive); in the assay on KM12, 1.61 µM (inactive); in the assay on HCC 2998, 2.31 µM (inactive); in the assay with LOX IMVI, 0.824 µM (active). The GI50 in the assay with OVCAR-8 is 15 µM (inactive); in the assay on CAKI-1 it was 3.61 µM (inactive); in the assay on SN12C, 5.68 µM (inactive); in the assay on COLO 205 it was 1.05 µM (active); with SW-620, 2.01 µM (inactive); in the assay on NCI-H23, 10.2 µM (inactive). For the same molecule, the GI50 with HCT-15 is 7.64 µM; in the assay with SK-MEL-5, 0.513 µM (active); with SK-MEL-28, 11.4 µM (inactive); in the assay with DMS-273 it was 2.2 µM (inactive); in the assay on OVCAR-5, 23.6 µM (inactive); in the assay with HT-29, 2.77 µM (inactive).

As for `O=C(O)C1CCC(=O)N1C(=O)COc1cc(Cl)c(Cl)cc1Cl` (centres undefined), the GI50 with NCI-H522, in the assay with IGROV-1, with SF-295, in the assay on KM12, in the assay with LOX IMVI and in the assay on OVCAR-8 was > 100 µM (inactive) throughout. Besides, the GI50 is > 100 µM (inactive) with CAKI-1; > 100 µM (inactive) in the assay on SN12C; > 100 µM (inactive) in the assay with COLO 205; > 100 µM (inactive) in the assay with SW-620; > 100 µM (inactive) in the assay on NCI-H23; over 100 µM in the assay with HCT-15. In addition, the GI50 with SK-MEL-5, in the assay with SK-MEL-28, in the assay on DMS-273, in the assay with OVCAR-5, in the assay with A498 and in the assay with HT-29 was > 100 µM (inactive) throughout.
